{
  "source": "patent US20190255011A1",
  "about": "“INHIBITION OF TUMOUR CELL MIGRATION” (GW Pharma Limited, priority 2004, published 2019)",
  "key": {"[1]": {"test_system": "U87 human glioma cell line", "details": "cited from earlier work"}, "[2]": {"test_system": "U87 human glioma cells subcutaneously implanted to nude mice", "details": "cited from earlier work"}, "[3]": {"test_system": "U373 human glioma cell line", "details": "cited from earlier work"}, "[4]": {"test_system": "U87 human glioma cells", "test": "cell migration assay in modified Boyden chamber", "assay_type": "cell-based", "experimental": "Cannabidiol (CBD) in the form of a botanical drug substance was dissolved in ethanol to a concentration of 100 mM this was stored at −20° C. until required.\nBefore use the CBD was further diluted with tissue culture medium to the desired concentration, ensuring that the concentration of ethanol was below 0.001%.\nU87 human glioma cells were used throughout this experiment. The cells were maintained at 37° C. in a humidified atmosphere with 5% CO2 and 95% air.\nCells were cultured in a 75 cm^2 culture flask in Dulbecco's Modified Eagle Medium (DMEM), which had been supplemented with 4 mM L-glutamine, 100 units/ml penicillin, […], 1% sodium pyruvate, 1% non-essential amino acids and 10% heat-inactivated fetal bovine serum.\nA cell migration assay was undertaken with the U87 cells in a 48 well, modified Boyden chamber in which upper and lower compartments were separated by a polycarbonate filter with a pore diameter of 8 μm coated with 15 μg/ml of fibronectin. Conditioned medium (CM) served as a chemoattractant. The CM was made by incubating a subconfluent culture of U87 cells with complete medium for 3 days.\nThe coated filter was placed over the bottom chamber, which contained the conditioned medium. Serum-free medium was used as a negative control.\nU87 cells were treated with either CBD or vehicle for 30 minutes and then seeded in the upper chamber at a concentration of 3×10^4 cells per well and incubated for 6 hours at 37° C.\nAfter the incubation the non-migrated cells on the upper surface of the filter were removed by scraping and the migrated cells on the lower side of the filter were stained with Diff-Quick Stain. Between 5 and 8 unit fields per filter were counted at 400× magnification.\nAs is shown in FIG. 1 cells were exposed to an increased concentration of CBD in a range starting from 0.01 μM to 9 μM and their migration was evaluated after 6 hours. The degree of inhibition of cell migration is expressed as a percentage of inhibition versus vehicle treatment (maximal stimulation)."}, "[5]": {"test_system": "U87 human glioma cells", "test": "cell viability at the concentrations used in the migration assay", "assay_type": "cell-based", "details": "range of CBD concentrations used (0.01 μM to 9 μM)"}, "[6]": {"test_system": "U87 human glioma cells", "test": "cell migration assay with pre-treatment by CB1 and CB2 receptor antagonists", "assay_type": "cell-based", "details": "antagonist 0.1 μM and 1 μM, 30 minutes pre-treatment, then CBD 6 μM", "experimental": "In order to determine whether the CBD-induced inhibition of cell migration as described in Example 1 above was dependant on the stimulation of these receptors the cell migration assay was performed with specific antagonists selective to CB1 and CB2 receptors. These are SR141716A and SR144528 respectively.\nU87 human glioma cells were firstly pre-treated with the antagonists for 30 minutes and then treated with the CBD for an additional 30 minutes before seeding in the upper chamber of the Boyden chamber.\nThe cell migration assay was performed using a CBD concentration of 6 μM (shown in Example 1 to inhibit 50% migration. The CB1 and CB2 receptor antagonists were tested at concentrations of 0.1 μM and 1 μM, at these concentrations cell viability was not affected."}},
  "data": [
    {"molecule": "C=C(C)[C@@H]1CCC(C)=C[C@H]1c1c(O)cc(CCCCC)cc1O", "note": "[CBD, cannabidiol]", "values": [
      {"measurement": "anti-proliferative effects in-vitro", "setting": "[1]", "value": "anti-proliferative effects"},
      {"measurement": "anti-proliferative effects in-vivo", "setting": "[2]", "value": "anti-proliferative effects"},
      {"measurement": "anti-proliferative effects in-vitro", "setting": "[3]", "value": "anti-proliferative effects"},
      {"measurement": "inhibition of migration", "setting": "[4]; CBD added to culture medium of U87 cells", "value": "concentration-dependant inhibition of migration"},
      {"measurement": "inhibition at 6 µM", "setting": "[4]; Homo sapiens, Glioma cell, CBD concentration of 6 μM", "value": 50, "unit": "%"},
      {"measurement": "IC50", "setting": "[4]; Homo sapiens, U-87 MG, U87 cells, CBD 0.01 μM to 9 μM, migration evaluated after 6 hours, versus vehicle treatment, read-out: IC50 of inhibition of cell migration", "value": "5.05 ± 1.1", "unit": "µM"},
      {"measurement": "cell viability", "setting": "[5]", "value": "did not alter cell viability"}
    ]},
    {"molecule": "Cc1c(C(=O)NN2CCCCC2)nn(-c2ccc(Cl)cc2Cl)c1-c1ccc(Cl)cc1", "note": "[SR141716]", "values": [
      {"measurement": "effect of antagonist pre-treatment on CBD-induced inhibition of migration", "setting": "[6]", "value": "not prevented"}
    ]},
    {"molecule": "SR144528", "values": [
      {"measurement": "effect of antagonist pre-treatment on CBD-induced inhibition of migration", "setting": "[6]", "value": "not prevented"}
    ]}
  ]
}
